According to ChEMBL document CHEMBL3396972, “Synthesis and biological evaluation of DAPY-DPEs hybrids as non-nucleoside inhibitors of HIV-1 reverse transcriptase” (Bioorg Med Chem, 2015):

Tests used:
[1] = tested on: Human immunodeficiency virus 1; assay: Antiviral activity against HIV-1 RES056 harboring reverse transcriptase K103N/Y181C double mutant infected in human MT4 cells assessed as reduction of virus-induced cytopathic effect after 5 days by MTT assay; type: functional, organism-based; conditions: Human immunodeficiency virus 1, RES056, MT4, 120 h
[2] = tested on: Human immunodeficiency virus 1; assay: Antiviral activity against wild type HIV-1 3B infected in human MT4 cells assessed as reduction of virus-induced cytopathic effect after 5 days by MTT assay; type: functional, organism-based; conditions: Human immunodeficiency virus 1, 3B, MT4, 120 h
[3] = Cytotoxicity against human MT4 cells after 5 days MTT assay; type: cell-based
[4] = tested on: Human immunodeficiency virus 2; assay: Antiviral activity against wild type HIV-2 ROD infected in human MT4 cells assessed as reduction of virus-induced cytopathic effect after 5 days by MTT assay; type: functional, organism-based; conditions: Human immunodeficiency virus 2, ISOLATE ROD, MT4, 120 h
[5] = Selectivity index, ratio of CC50 for human MT4 cells to EC50 for wild type HIV-1 3B infected in human MT4 cells; type: toxicity, cell-based; conditions: read-out: Ratio CC50/EC50
[6] = target: Human immunodeficiency virus type 1 reverse transcriptase (Human immunodeficiency virus 1, UniProt Q72547); assay: Inhibition of wild type HIV1 p66/p51 reverse transcriptase by spectrofluorometry

Compound: N#Cc1ccc(Nc2nccc(OCC(=O)Nc3ccc(F)cc3)n2)cc1
- EC50 [1]: > 344 µM
- EC50 [2]: > 344 µM
- CC50 at 120 h [3]: > 344 µM
- EC50 [4]: > 344 µM

Compound: N#Cc1ccc(Nc2nccc(OCC(=O)Nc3ccc(Cl)cc3)n2)cc1
- EC50 [1]: > 162 µM
- selectivity ratio [5]: 8
- IC50 [6]: 26.9 µM
- EC50 [2]: 19.2 µM
- CC50 at 120 h [3]: 162 µM
- EC50 [4]: 162 µM

Compound: N#Cc1ccc(Nc2nccc(OCC(=O)Nc3cccc(Cl)c3)n2)cc1
- EC50 [1]: > 329 µM
- selectivity ratio [5]: > 9340
- IC50 [6]: 0.12 µM
- EC50 [2]: 0.035 µM
- CC50 at 120 h [3]: > 329 µM
- EC50 [4]: > 329 µM

Compound: N#Cc1ccc(Nc2nccc(OCC(=O)Nc3ccc([N+](=O)[O-])cc3)n2)cc1
- EC50 [1]: > 320 µM
- EC50 [2]: > 320 µM
- CC50 at 120 h [3]: > 320 µM
- EC50 [4]: > 320 µM

Compound: N#Cc1ccc(NC(=O)COc2ccnc(Nc3ccc(C#N)cc3)n2)cc1
- EC50 [1]: > 338 µM
- IC50 [6]: 23.9 µM
- EC50 [2]: ≥ 35.1 µM
- CC50 at 120 h [3]: > 338 µM
- EC50 [4]: > 338 µM

Compound: N#Cc1ccc(Nc2nccc(OCC(=O)Nc3ccc(C#N)cc3F)n2)cc1
- EC50 [1]: > 322 µM
- EC50 [2]: > 322 µM
- CC50 at 120 h [3]: > 322 µM
- EC50 [4]: > 322 µM

Compound: COc1ccc(NC(=O)COc2ccnc(Nc3ccc(C#N)cc3)n2)cc1
- EC50 [1]: > 333 µM
- selectivity ratio [5]: > 7
- IC50 [6]: 24.6 µM
- EC50 [2]: 49.1 µM
- CC50 at 120 h [3]: > 333 µM
- EC50 [4]: > 333 µM

Compound: Cc1cc(OCC(=O)Nc2ccc(F)cc2)nc(Nc2ccc(C#N)cc2)n1
- EC50 [1]: > 331 µM
- EC50 [2]: > 331 µM
- CC50 at 120 h [3]: > 331 µM
- EC50 [4]: > 331 µM

Compound: Cc1cc(OCC(=O)Nc2ccc(Cl)cc2)nc(Nc2ccc(C#N)cc2)n1
- EC50 [1]: 2.63 µM
- selectivity ratio [5]: < 1
- EC50 [2]: > 2.63 µM
- CC50 at 120 h [3]: 2.63 µM
- EC50 [4]: 2.63 µM

Compound: Cc1cc(OCC(=O)Nc2ccc(Br)cc2)nc(Nc2ccc(C#N)cc2)n1
- selectivity ratio [5]: < 1
- EC50 [2]: > 0.93 µM
- CC50 at 120 h [3]: 0.93 µM
- EC50 [4]: 0.93 µM

Compound: Cc1cc(OCC(=O)Nc2cccc(Cl)c2)nc(Nc2ccc(C#N)cc2)n1
- EC50 [1]: > 32.1 µM
- selectivity ratio [5]: 197
- IC50 [6]: 0.54 µM
- EC50 [2]: 0.17 µM
- CC50 at 120 h [3]: 32.1 µM
- EC50 [4]: > 32.1 µM

Compound: Cc1cc(OCC(=O)Nc2ccc([N+](=O)[O-])cc2)nc(Nc2ccc(C#N)cc2)n1
- EC50 [2]: > 309 µM
- CC50 at 120 h [3]: > 309 µM
- EC50 [4]: > 309 µM

Compound: Cc1cc(OCC(=O)Nc2ccc(C#N)cc2)nc(Nc2ccc(C#N)cc2)n1
- EC50 [2]: > 325 µM
- CC50 at 120 h [3]: > 325 µM
- EC50 [4]: > 325 µM

Compound: Cc1cc(OCC(=O)Nc2ccc(C#N)cc2F)nc(Nc2ccc(C#N)cc2)n1
- EC50 [2]: > 311 µM
- CC50 at 120 h [3]: > 311 µM
- EC50 [4]: > 311 µM

Compound: Cc1cnc(Nc2ccc(C#N)cc2)nc1OCC(=O)Nc1ccc(F)cc1
- EC50 [1]: > 331 µM
- IC50 [6]: 18.9 µM
- EC50 [2]: ≥ 34.5 µM
- CC50 at 120 h [3]: > 331 µM
- EC50 [4]: > 331 µM

Compound: Cc1cnc(Nc2ccc(C#N)cc2)nc1OCC(=O)Nc1ccccc1F
- EC50 [1]: > 331 µM
- selectivity ratio [5]: > 25200
- IC50 [6]: 0.083 µM
- EC50 [2]: 0.013 µM
- CC50 at 120 h [3]: > 331 µM
- EC50 [4]: > 331 µM

Compound: Cc1cnc(Nc2ccc(C#N)cc2)nc1OCC(=O)Nc1ccc(Cl)cc1
- EC50 [1]: > 317 µM
- EC50 [2]: > 317 µM
- CC50 at 120 h [3]: > 317 µM
- EC50 [4]: > 317 µM

Compound: Cc1cnc(Nc2ccc(C#N)cc2)nc1OCC(=O)Nc1cccc(Cl)c1
- EC50 [1]: > 144 µM
- selectivity ratio [5]: 2890
- IC50 [6]: 0.16 µM
- EC50 [2]: 0.05 µM
- CC50 at 120 h [3]: 144 µM
- EC50 [4]: > 144 µM

Compound: Cc1cnc(Nc2ccc(C#N)cc2)nc1OCC(=O)Nc1ccccc1Cl
- EC50 [1]: > 197 µM
- selectivity ratio [5]: 11300
- IC50 [6]: 0.046 µM
- EC50 [2]: 0.017 µM
- CC50 at 120 h [3]: 197 µM
- EC50 [4]: > 197 µM

Compound: Cc1cnc(Nc2ccc(C#N)cc2)nc1OCC(=O)Nc1ccc(Br)cc1
- EC50 [1]: > 34.7 µM
- selectivity ratio [5]: < 1
- EC50 [2]: > 34.7 µM
- CC50 at 120 h [3]: 34.7 µM
- EC50 [4]: > 34.7 µM

Compound: Cc1cnc(Nc2ccc(C#N)cc2)nc1OCC(=O)Nc1ccc([N+](=O)[O-])cc1
- EC50 [1]: > 66.3 µM
- selectivity ratio [5]: < 1
- EC50 [2]: > 66.3 µM
- CC50 at 120 h [3]: 66.3 µM
- EC50 [4]: > 66.3 µM

Compound: Cc1cnc(Nc2ccc(C#N)cc2)nc1OCC(=O)Nc1ccc(C#N)cc1
- EC50 [1]: > 48.4 µM
- selectivity ratio [5]: ≥ 20
- IC50 [6]: 17.6 µM
- EC50 [2]: 2.42 µM
- CC50 at 120 h [3]: ≥ 48.4 µM
- EC50 [4]: > 48.4 µM

Compound: Cc1cnc(Nc2ccc(C#N)cc2)nc1OCC(=O)Nc1ccc(C#N)cc1F
- EC50 [1]: > 311 µM
- selectivity ratio [5]: > 102
- IC50 [6]: 12 µM
- EC50 [2]: 3.03 µM
- CC50 at 120 h [3]: > 311 µM
- EC50 [4]: > 311 µM

Compound: CC(C)Nc1cccnc1N1CCN(C(=O)c2cc3cc(NS(C)(=O)=O)ccc3[nH]2)CC1 [DELAVIRDINE]
- EC50 [1]: > 43.8 µM
- selectivity ratio [5]: > 67
- EC50 [2]: 0.65 µM
- CC50 at 120 h [3]: > 43.8 µM

Compound: O=c1[nH]cnc2c1ncn2[C@H]1CC[C@@H](CO)O1 [DIDANOSINE]
- selectivity ratio [5]: > 9
- CC50 at 120 h [3]: > 212 µM

Compound: O=C1Nc2ccc(Cl)cc2[C@@](C#CC2CC2)(C(F)(F)F)O1 [EFAVIRENZ]
- EC50 [2]: 0.0062 µM
- CC50 at 120 h [3]: > 6.34 µM

Compound: Cc1cc(C#N)cc(C)c1Oc1nc(Nc2ccc(C#N)cc2)nc(N)c1Br [ETRAVIRINE]
- EC50 [1]: 0.013 µM
- selectivity ratio [5]: 7680
- EC50 [2]: 0.0017 µM
- CC50 at 120 h [3]: 13.3 µM
- EC50 [4]: > 13.3 µM

Compound: Nc1ccn([C@@H]2CS[C@H](CO)O2)c(=O)n1 [LAMIVUDINE]
- selectivity ratio [5]: > 39
- CC50 at 120 h [3]: > 87.2 µM

Compound: Cc1ccnc2c1NC(=O)c1cccnc1N2C1CC1 [NEVIRAPINE]
- EC50 [1]: ≥ 7.59 µM
- CC50 at 120 h [3]: > 15 µM

Compound: Cc1cn([C@H]2C[C@H](N=[N+]=[N-])[C@@H](CO)O2)c(=O)[nH]c1=O [ZIDOVUDINE]
- EC50 [1]: 0.01 µM
- CC50 at 120 h [3]: > 93.5 µM
- EC50 [4]: 0.0066 µM
